{"source": "patent US10745400B2", "about": "“Inhibition of BMP signaling, compounds, compositions and uses thereof” (Vanderbilt University, priority 2018, dated 2020)", "key": {"ALK4": {"biological_target": "T1, ALK4 (Homo sapiens, UniProt P36896)", "T1 sequence (P36896 24-505)": "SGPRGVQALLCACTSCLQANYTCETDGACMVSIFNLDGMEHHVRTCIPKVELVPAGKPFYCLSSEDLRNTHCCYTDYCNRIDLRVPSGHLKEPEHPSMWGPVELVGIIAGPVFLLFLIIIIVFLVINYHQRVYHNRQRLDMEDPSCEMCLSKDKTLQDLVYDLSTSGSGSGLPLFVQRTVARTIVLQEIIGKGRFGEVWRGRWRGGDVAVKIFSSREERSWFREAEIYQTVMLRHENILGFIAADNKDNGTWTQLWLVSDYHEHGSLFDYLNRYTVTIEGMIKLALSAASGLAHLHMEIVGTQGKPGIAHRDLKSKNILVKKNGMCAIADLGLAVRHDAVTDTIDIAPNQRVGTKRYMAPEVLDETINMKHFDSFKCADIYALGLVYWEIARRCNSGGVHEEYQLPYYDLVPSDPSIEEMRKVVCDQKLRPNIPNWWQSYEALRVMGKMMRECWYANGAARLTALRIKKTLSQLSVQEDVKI", "test": "Kinase assay (33P-ATP filter-binding), ALK4", "format": "biochemical", "conditions": "read-out: Kinase Selectivity ALK4", "protocol": "(§1) The kinase assays were carried out briefly as follows. Substrate was prepared in Base Reaction Buffer (20 mM Hepes (pH 7.5), 10 mM MgCl2, 1 mM EGTA, 0.02% Brij35, 0.02 mg/ml BSA, 0.1 mM Na3VO4, 2 mM DTT, 1% DMSO). The indicated kinases was delivered into the substrate solution and allowed to gently mix. Next, the specific compound was delivered in DMSO into the kinase mixture by Acoustic technology (Echo550; nanoliter range), and allowed to incubate for 20 minutes at room temperature. Next, ^33P-ATP was delivered into the reaction mixture to initiate the reaction and allowed to incubate at room temperature. After 2 hours, the reactions were spotted onto P81 ion exchange paper and the kinase activity is detected by the filter-binding method."}, "[1]": {"tested_on": "BMP-responsive C2C12 mouse myoblast cells stimulated with BMP4", "test": "BMP4 cell assay (Id1 promoter-firefly luciferase reporter)", "format": "cell-based", "conditions": "BMP4 50 ng/mL, overnight", "protocol": "The BMP4 cell assay were carried out briefly as follows. Stably transfected BMP-responsive C2C12 mouse myoblast cells (containing the Idl promoter-firefly luciferase reporter) were seeded in 96-well plates and incubated overnight with the compounds and BMP4 (50 ng/mL). The cells were then lysed, and cell extracts were then subjected to the firefly luciferase assay using Steady-Glo luciferase assay kit (Promega). The results were normalized to cell titers, as measured using Cell Titer-Glo luminescence assay (Promega). […] Relative activity was quantified by the ratio of firefly to Renilla luciferase activities using the dual luciferase assay kit (Promega)."}, "[2]": {"test": "Intrinsic clearance, human", "format": "in vitro ADME", "conditions": "for CLint scaled: human"}, "BMPR2": {"biological_target": "T2, BMPR2 (Homo sapiens, UniProt Q13873)", "T2 sequence (Q13873 27-1038)": "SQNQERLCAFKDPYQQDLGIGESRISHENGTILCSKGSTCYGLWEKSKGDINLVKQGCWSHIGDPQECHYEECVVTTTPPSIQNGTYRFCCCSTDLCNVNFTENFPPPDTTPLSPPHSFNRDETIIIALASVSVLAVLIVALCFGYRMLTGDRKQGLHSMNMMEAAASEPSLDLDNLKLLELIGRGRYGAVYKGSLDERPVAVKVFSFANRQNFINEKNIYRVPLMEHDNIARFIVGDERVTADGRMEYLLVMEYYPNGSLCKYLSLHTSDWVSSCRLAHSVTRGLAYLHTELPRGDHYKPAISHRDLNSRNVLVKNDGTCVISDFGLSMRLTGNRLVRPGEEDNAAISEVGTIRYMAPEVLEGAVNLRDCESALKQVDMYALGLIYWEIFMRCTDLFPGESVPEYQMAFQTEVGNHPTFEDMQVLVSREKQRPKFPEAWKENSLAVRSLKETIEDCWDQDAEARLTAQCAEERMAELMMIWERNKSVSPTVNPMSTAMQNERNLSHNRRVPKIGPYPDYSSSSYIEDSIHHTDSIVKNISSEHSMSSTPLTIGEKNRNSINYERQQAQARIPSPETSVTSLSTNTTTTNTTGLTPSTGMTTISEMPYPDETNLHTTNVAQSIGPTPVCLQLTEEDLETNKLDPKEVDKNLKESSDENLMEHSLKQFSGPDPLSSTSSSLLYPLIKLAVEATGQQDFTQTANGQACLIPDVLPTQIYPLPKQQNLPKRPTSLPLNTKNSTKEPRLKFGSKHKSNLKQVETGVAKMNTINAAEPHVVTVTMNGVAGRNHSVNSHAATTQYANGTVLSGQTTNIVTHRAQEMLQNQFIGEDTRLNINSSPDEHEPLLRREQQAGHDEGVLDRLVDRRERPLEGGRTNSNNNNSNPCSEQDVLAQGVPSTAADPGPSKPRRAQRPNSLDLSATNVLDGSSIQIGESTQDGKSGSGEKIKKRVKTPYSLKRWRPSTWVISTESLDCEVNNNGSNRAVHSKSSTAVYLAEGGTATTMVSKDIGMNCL", "test": "Kinase assay (33P-ATP filter-binding), BMPR2", "format": "biochemical", "conditions": "read-out: Kinase Selectivity BMPR2", "protocol": "as §1"}, "TGFbR2": {"biological_target": "TGFbR2 (Homo sapiens, UniProt P37173)", "sequence (P37173 23-567, species assumed)": "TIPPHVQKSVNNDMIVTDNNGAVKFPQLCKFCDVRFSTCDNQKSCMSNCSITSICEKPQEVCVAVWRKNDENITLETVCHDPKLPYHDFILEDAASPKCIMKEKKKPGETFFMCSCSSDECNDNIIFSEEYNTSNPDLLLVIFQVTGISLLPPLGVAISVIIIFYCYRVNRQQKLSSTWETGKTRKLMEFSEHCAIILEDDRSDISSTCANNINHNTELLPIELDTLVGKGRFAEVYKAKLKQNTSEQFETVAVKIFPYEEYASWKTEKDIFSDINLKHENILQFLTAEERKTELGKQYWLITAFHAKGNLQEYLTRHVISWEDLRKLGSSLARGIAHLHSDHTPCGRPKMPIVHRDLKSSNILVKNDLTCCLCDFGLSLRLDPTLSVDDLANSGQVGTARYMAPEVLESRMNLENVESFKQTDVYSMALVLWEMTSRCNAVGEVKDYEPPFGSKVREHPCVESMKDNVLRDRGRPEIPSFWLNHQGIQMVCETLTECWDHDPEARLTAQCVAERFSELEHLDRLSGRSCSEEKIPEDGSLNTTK", "test": "Kinase assay (33P-ATP filter-binding), TGFbR2", "format": "biochemical", "conditions": "read-out: Kinase Selectivity TGFbR2", "protocol": "as §1"}, "ALK6": {"biological_target": "ALK6 (Homo sapiens, UniProt O00238)", "sequence (O00238 14-502)": "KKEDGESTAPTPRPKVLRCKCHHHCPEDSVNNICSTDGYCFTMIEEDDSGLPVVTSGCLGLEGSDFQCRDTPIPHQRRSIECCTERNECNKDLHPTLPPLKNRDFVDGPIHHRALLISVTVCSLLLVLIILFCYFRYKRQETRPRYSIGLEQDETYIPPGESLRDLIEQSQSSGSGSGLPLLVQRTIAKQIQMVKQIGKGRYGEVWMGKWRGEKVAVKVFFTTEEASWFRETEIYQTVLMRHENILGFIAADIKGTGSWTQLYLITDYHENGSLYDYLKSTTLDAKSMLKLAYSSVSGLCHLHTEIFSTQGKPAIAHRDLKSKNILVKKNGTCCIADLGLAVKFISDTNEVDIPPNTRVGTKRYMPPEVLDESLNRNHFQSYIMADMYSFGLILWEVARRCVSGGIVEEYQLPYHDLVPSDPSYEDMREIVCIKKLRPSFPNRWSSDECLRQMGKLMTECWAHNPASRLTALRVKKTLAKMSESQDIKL", "test": "Kinase assay (33P-ATP filter-binding), ALK6", "format": "biochemical", "conditions": "read-out: Kinase Selectivity ALK6", "protocol": "as §1"}, "Protein binding, mouse": {"test": "Protein binding, mouse", "format": "in vitro ADME"}, "ALK3/BMPR1A": {"biological_target": "ALK3/BMPR1A (Homo sapiens, UniProt P36894)", "sequence (P36894 24-532)": "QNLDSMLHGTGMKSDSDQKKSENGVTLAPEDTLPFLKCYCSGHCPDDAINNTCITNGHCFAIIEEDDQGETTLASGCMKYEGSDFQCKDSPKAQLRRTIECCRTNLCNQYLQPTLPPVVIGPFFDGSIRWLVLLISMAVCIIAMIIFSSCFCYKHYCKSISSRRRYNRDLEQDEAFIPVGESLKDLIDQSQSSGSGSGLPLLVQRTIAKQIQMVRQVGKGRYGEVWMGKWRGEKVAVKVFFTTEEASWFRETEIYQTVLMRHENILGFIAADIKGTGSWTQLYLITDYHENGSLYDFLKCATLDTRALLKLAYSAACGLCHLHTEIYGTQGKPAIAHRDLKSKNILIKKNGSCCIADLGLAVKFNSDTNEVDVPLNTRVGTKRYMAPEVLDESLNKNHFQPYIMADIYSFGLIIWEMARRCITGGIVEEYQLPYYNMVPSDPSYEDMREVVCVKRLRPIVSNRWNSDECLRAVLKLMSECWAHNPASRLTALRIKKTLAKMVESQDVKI", "test": "Kinase assay (33P-ATP filter-binding), ALK3", "format": "biochemical", "conditions": "1 mM; read-out: Kinase Selectivity ALK3/BMPR1A (1 mM)", "protocol": "as §1"}, "KDR": {"biological_target": "KDR (Homo sapiens, UniProt P35968)", "sequence (P35968 20-1356, species assumed)": "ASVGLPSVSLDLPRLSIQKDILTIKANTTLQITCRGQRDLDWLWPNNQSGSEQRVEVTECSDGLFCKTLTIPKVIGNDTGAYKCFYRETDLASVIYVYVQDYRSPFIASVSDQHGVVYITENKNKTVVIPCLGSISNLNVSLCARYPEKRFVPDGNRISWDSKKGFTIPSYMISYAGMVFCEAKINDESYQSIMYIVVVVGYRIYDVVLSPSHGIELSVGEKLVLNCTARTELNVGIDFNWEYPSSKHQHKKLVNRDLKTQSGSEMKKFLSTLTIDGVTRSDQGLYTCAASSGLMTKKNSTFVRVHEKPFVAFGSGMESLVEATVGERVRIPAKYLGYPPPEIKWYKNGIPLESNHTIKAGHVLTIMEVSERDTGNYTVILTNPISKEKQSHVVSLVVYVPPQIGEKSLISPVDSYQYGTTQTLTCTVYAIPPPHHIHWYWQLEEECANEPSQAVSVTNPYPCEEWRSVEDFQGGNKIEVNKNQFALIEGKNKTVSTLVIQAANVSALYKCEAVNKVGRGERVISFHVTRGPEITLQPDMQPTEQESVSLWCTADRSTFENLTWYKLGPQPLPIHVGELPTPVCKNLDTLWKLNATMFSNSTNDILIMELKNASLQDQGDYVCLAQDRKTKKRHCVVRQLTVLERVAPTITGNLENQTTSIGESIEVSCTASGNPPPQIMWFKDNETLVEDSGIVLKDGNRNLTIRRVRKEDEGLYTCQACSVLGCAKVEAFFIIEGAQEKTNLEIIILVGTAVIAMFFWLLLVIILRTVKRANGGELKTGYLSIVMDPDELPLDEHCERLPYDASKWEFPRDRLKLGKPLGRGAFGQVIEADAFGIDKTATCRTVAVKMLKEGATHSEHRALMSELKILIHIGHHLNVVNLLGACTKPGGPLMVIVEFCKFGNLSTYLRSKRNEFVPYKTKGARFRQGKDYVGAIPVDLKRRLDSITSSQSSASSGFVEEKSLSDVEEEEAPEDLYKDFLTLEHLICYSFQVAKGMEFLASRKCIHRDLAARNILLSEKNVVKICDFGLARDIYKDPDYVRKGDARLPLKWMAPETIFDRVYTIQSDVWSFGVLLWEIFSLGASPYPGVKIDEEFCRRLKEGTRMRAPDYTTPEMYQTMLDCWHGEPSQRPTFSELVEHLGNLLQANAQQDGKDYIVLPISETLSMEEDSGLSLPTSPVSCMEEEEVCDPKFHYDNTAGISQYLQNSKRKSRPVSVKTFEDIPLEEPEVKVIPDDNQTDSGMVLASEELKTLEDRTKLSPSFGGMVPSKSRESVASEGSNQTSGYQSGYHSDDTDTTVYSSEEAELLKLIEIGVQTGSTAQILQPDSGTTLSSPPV", "test": "Kinase assay (33P-ATP filter-binding), KDR", "format": "biochemical", "conditions": "read-out: Kinase Selectivity KDR", "protocol": "as §1"}, "PDGFRb": {"biological_target": "PDGFRb (Homo sapiens, UniProt P09619)", "sequence (P09619 33-1106, species assumed)": "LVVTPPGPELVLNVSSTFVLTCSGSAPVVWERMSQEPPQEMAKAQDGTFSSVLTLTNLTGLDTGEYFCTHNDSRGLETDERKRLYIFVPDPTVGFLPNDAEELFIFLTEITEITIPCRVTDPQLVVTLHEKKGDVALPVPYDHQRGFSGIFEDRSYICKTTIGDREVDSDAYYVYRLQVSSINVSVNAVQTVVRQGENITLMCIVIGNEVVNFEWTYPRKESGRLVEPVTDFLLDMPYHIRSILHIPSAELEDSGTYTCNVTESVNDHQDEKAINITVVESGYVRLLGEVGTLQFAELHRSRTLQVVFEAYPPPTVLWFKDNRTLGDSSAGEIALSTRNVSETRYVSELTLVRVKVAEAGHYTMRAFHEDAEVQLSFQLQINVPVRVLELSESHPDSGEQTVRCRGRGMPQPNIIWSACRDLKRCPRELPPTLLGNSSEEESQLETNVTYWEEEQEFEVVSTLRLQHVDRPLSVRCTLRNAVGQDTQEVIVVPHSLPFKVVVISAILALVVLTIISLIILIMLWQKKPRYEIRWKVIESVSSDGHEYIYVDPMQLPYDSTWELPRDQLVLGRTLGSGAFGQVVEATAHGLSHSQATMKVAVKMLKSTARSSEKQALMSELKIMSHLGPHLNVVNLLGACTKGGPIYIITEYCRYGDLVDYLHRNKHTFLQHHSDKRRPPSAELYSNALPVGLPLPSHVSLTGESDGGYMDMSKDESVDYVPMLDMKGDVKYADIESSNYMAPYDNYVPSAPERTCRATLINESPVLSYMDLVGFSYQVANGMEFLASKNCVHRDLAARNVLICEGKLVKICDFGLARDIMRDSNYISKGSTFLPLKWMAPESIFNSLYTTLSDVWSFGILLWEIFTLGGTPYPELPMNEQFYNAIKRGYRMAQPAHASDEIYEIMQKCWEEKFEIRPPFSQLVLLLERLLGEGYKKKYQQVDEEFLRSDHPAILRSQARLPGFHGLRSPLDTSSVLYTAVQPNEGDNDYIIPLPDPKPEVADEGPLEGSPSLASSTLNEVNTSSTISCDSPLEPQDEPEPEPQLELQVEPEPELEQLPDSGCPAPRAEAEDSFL", "test": "Kinase assay (33P-ATP filter-binding), PDGFRb", "format": "biochemical", "conditions": "read-out: Kinase Selectivity PDGFRb", "protocol": "as §1"}, "ALK1/ACVRL1": {"biological_target": "ALK1/ACVRL1 (Homo sapiens, UniProt P37023)", "sequence (P37023 22-503)": "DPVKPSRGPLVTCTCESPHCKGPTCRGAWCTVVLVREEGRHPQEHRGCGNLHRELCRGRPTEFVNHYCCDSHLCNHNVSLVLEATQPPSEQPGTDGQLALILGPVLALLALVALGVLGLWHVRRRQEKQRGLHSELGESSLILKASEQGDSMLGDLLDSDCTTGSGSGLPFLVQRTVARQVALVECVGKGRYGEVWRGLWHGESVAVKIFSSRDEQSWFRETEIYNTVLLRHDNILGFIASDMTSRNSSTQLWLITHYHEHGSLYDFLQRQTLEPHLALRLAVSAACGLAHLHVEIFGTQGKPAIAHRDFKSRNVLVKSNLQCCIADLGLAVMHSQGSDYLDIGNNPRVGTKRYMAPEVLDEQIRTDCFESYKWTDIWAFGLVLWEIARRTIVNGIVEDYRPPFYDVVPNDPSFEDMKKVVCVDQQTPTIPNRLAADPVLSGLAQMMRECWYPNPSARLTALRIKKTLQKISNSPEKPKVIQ", "test": "Kinase assay (33P-ATP filter-binding), ALK1", "format": "biochemical", "conditions": "read-out: Kinase Selectivity ALK1/ACVRL1", "protocol": "as §1"}, "Protein binding, human": {"test": "Protein binding, human", "format": "in vitro ADME"}, "[3]": {"test": "Intrinsic clearance, mouse", "format": "in vitro ADME", "conditions": "for CLint scaled: mouse"}, "ALK5": {"biological_target": "T3, ALK5 (Homo sapiens, UniProt P36897)", "T3 sequence (P36897 34-503)": "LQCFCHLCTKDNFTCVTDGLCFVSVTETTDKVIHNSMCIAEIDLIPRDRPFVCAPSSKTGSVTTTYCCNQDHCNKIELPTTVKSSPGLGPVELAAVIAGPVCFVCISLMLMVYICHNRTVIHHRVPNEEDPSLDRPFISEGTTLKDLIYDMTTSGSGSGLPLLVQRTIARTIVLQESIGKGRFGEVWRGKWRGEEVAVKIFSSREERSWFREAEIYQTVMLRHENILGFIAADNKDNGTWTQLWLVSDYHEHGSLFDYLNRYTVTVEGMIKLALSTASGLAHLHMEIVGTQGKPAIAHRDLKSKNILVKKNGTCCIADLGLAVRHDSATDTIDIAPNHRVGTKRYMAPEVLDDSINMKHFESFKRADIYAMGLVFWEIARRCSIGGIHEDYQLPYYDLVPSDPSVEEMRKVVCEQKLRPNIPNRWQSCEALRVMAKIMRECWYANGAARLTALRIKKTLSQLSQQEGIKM", "test": "Kinase assay (33P-ATP filter-binding), ALK5", "format": "biochemical", "conditions": "read-out: Kinase Selectivity ALK5", "protocol": "as §1"}, "[4]": {"conditions": "CL-Hep, value in parentheses, read-out: Intrinsic Clearance Human (CL-Hep)"}}}
{"compound": "Cc1cc(-c2cnc3cc(-c4ccc(C5CNCCN5)cc4)ccn23)c2cc(F)ccc2n1", "note": "(centres unmarked) [Compound 18]", "values": [{"measurement": "IC50", "setting": "ALK4", "value": 386, "unit": "nM"}, {"measurement": "IC50", "setting": "[1]; C2C12 cells", "value": 34.9, "unit": "nM"}, {"measurement": "Intrinsic Clearance Human (CL-Hep)", "setting": "[2]; CL-Hep, value in parentheses", "value": "(12.4) mL/kg/min"}, {"measurement": "IC50", "setting": "BMPR2", "value": "> 100000", "unit": "nM"}, {"measurement": "IC50", "setting": "TGFbR2", "value": 2680, "unit": "nM"}, {"measurement": "IC50", "setting": "ALK6", "value": 231, "unit": "nM"}, {"measurement": "Protein Binding (% Free) Mouse", "setting": "Protein binding, mouse", "value": 5.48, "unit": "% Free"}, {"measurement": "IC50", "setting": "ALK3/BMPR1A", "value": "< 5.1", "unit": "nM"}, {"measurement": "IC50", "setting": "KDR", "value": 31400, "unit": "nM"}, {"measurement": "IC50", "setting": "PDGFRb", "value": 6490, "unit": "nM"}, {"measurement": "IC50", "setting": "ALK1/ACVRL1", "value": 16.4, "unit": "nM"}, {"measurement": "Protein Binding (% Free) Human", "setting": "Protein binding, human", "value": 7.33, "unit": "% Free"}, {"measurement": "Intrinsic Clearance Mouse", "setting": "[3]", "value": "<49.5", "unit": "mL/min/kg"}, {"measurement": "Intrinsic Clearance Mouse (CL-Hep)", "setting": "[3]; CL-Hep, value in parentheses", "value": "(<32.94) mL/kg/min"}, {"measurement": "IC50", "setting": "ALK5", "value": 456, "unit": "nM"}]}
{"compound": "Cc1cc(-c2cnc3cc(-c4ccc(C5COCCN5)cc4)ccn23)c2cc(F)cc(F)c2n1", "note": "(centres unmarked) [Compound 22]", "values": [{"measurement": "IC50", "setting": "ALK4", "value": 113, "unit": "nM"}, {"measurement": "CLint scaled", "setting": "[2]; [4]", "value": 17.5, "unit": "mL/min/kg"}, {"measurement": "IC50", "setting": "BMPR2", "value": "> 50000", "unit": "nM"}, {"measurement": "IC50", "setting": "TGFbR2", "value": 388, "unit": "nM"}, {"measurement": "IC50", "setting": "ALK6", "value": 128, "unit": "nM"}, {"measurement": "IC50", "setting": "ALK3/BMPR1A", "value": "< 5.1", "unit": "nM"}, {"measurement": "IC50", "setting": "KDR", "value": 39300, "unit": "nM"}, {"measurement": "IC50", "setting": "PDGFRb", "value": 5200, "unit": "nM"}, {"measurement": "IC50", "setting": "ALK1/ACVRL1", "value": 72.1, "unit": "nM"}, {"measurement": "IC50", "setting": "ALK5", "value": 232, "unit": "nM"}]}
{"compound": "Cc1cc(-c2cnc3cc(-c4ccc(C5CNCCN5)cc4)ccn23)c2cc(F)ccc2n1", "note": "(centres unmarked) [Compound 17]", "values": [{"measurement": "IC50", "setting": "ALK4", "value": 390, "unit": "nM"}, {"measurement": "IC50", "setting": "[1]; Mus musculus, C2C12, C2C12 cells", "value": 29.6, "unit": "nM"}, {"measurement": "CLint scaled", "setting": "[2]; [4]", "value": 14, "unit": "mL/min/kg"}, {"measurement": "CLint scaled", "setting": "[2]; read-out: Intrinsic Clearance Human", "value": 46.7, "unit": "mL/min/kg"}, {"measurement": "IC50", "setting": "BMPR2", "value": "> 100000", "unit": "nM"}, {"measurement": "IC50", "setting": "TGFbR2", "value": 498, "unit": "nM"}, {"measurement": "IC50", "setting": "ALK6", "value": 188, "unit": "nM"}, {"measurement": "Protein Binding (% Free) Mouse", "setting": "Protein binding, mouse", "value": 8.52, "unit": "% Free"}, {"measurement": "IC50", "setting": "ALK3/BMPR1A", "value": "< 5.1", "unit": "nM"}, {"measurement": "IC50", "setting": "KDR", "value": 36900, "unit": "nM"}, {"measurement": "IC50", "setting": "PDGFRb", "value": 6930, "unit": "nM"}, {"measurement": "IC50", "setting": "ALK1/ACVRL1", "value": 89.2, "unit": "nM"}, {"measurement": "Protein Binding (% Free) Human", "setting": "Protein binding, human", "value": 10.3, "unit": "% Free"}, {"measurement": "CLint scaled", "setting": "[3]; CL-Hep, value in parentheses, read-out: Intrinsic Clearance Mouse (CL-Hep)", "value": "< 32.9", "unit": "mL/min/kg"}, {"measurement": "CLint scaled", "setting": "[3]; read-out: Intrinsic Clearance Mouse", "value": "< 49.5", "unit": "mL/min/kg"}, {"measurement": "IC50", "setting": "ALK5", "value": 717, "unit": "nM"}]}
